PubChem BioAssay (NCI)
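All cell lines were grown in 96-well plates and treated with compound for 48 hours. GI50 marks 50% less growth. TGI: total growth inhibition.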

Key:
Experiment in all cases: NCI anticancer screen, dose series, 48 h
CCRF-CEM leukemia = test system: CCRF-CEM leukemia
EKVX NSCLC = test system: EKVX NSCLC
HOP-62 NSCLC = test system: HOP-62 NSCLC
KM12 colon = test system: KM12 colon
LOX IMVI melanoma = test system: LOX IMVI melanoma
MALME-3M melanoma = test system: MALME-3M melanoma
RPMI-8226 leukemia = test system: RPMI-8226 leukemia
RXF 393 renal = test system: RXF 393 renal
SK-OV-3 ovarian = test system: SK-OV-3 ovarian
HL-60(TB) leukemia = test system: HL-60(TB) leukemia

| Structure (SMILES) | GI50 (CCRF-CEM leukemia) [µM] | TGI (CCRF-CEM leukemia) [µM] | GI50 (EKVX NSCLC) [µM] | TGI (EKVX NSCLC) [µM] | GI50 (HOP-62 NSCLC) [µM] | TGI (HOP-62 NSCLC) [µM] | GI50 (KM12 colon) [µM] | TGI (KM12 colon) [µM] | GI50 (LOX IMVI melanoma) [µM] | TGI (LOX IMVI melanoma) [µM] | GI50 (MALME-3M melanoma) [µM] | TGI (MALME-3M melanoma) [µM] | GI50 (RPMI-8226 leukemia) [µM] | TGI (RPMI-8226 leukemia) [µM] | GI50 (RXF 393 renal) [µM] | TGI (RXF 393 renal) [µM] | GI50 (SK-OV-3 ovarian) [µM] | TGI (SK-OV-3 ovarian) [µM] | TGI (HL-60(TB) leukemia) [µM] |
| --- | --- | --- | --- | --- | --- | --- | --- | --- | --- | --- | --- | --- | --- | --- | --- | --- | --- | --- | --- |
| Oc1ccccc1/C=N/Nc1nc2ccccc2s1 | 4.37 | > 100 | 8.73 | > 100 | 5.56 | > 100 | 3.1 | > 100 | 4.3 | > 100 | 30 | > 100 | 4.7 | > 100 | 13.7 | 39 | 15.2 | > 100 | – |
| O=C(NCCN1CCOCC1)Nc1nc2ccc(Sc3nnc4ccc(-c5ccc(F)cc5)nn34)cc2s1 | – | > 100 | – | – | > 20.8 | > 100 | 0.571 | > 100 | – | > 42.3 | 3.12 | > 21.1 | – | – | 0.522 | – | > 100 | > 100 | – |
| Cc1cc(NCCCNc2ccnc3cc(Cl)ccc23)nc(Nc2ccc(C(=O)N3CCCCC3)cc2)n1 | 2.48 | 8.4 | 3.65 | 16 | 2.4 | 7.43 | 2.96 | 11.6 | 1.82 | 3.57 | 2.34 | 4.15 | 2.27 | 5.66 | 1.8 | 3.67 | 3.14 | 8.23 | – |
| COc1cc(-c2nn(-c3ccc(NC(=O)Nc4ccc(Cl)c(C(F)(F)F)c4)cc3)cc2-c2ccncc2)ccc1Cl | 1.42 | 7.01 | 1.1 | 3.95 | 1.9 | 3.93 | 1.36 | 2.87 | 1.43 | 2.78 | – | – | – | – | 1.54 | 4.41 | 2.53 | 6.43 | – |
| CC1=CC[C@@H]2[C@@H](CC[C@@]2(C)O)C(C)(C)[C@H]1CC[C@@H]1[C@@]2(C)CC[C@@H](O)C(C)(C)O[C@@H]2CC[C@]1(C)O | – | – | – | – | – | 75.4 | – | – | – | 29.8 | – | – | – | 52.3 | – | – | – | > 100 | 40.5 |
| CCOc1ccc(NC(=O)/C(Cc2nc3ccccc3[nH]c2=O)=N\O)cc1 | – | > 100 | – | > 100 | – | > 100 | – | > 100 | – | > 100 | – | > 100 | – | > 100 | – | > 100 | – | > 100 | – |
| N=C(N)c1ccc(CS(=O)(=O)F)cc1 | – | – | > 100 | > 100 | > 100 | > 100 | > 100 | > 100 | 81.2 | > 100 | > 100 | > 100 | – | – | > 100 | > 100 | > 100 | > 100 | – |
| C/C(=N\NC(=O)C[n+]1ccccc1)c1sc(-c2nc(C)c(/C(C)=N/NC(=O)C[n+]3ccccc3)s2)nc1C | – | – | – | > 100 | – | > 100 | – | > 100 | – | > 100 | – | > 100 | – | > 100 | – | > 100 | – | > 100 | – |
| N#Cc1c(N)n(C2OC(CO)C(O)C2O)c2ncnc(N)c12 (stereo not drawn) | – | 1.34 | – | > 100 | – | 2.39 | – | 1.98 | – | 0.0595 | – | 0.161 | – | 3.59 | – | 1.33 | – | – | – |
| C[C@@]1([C@H](OC(=O)c2cccc3ccccc23)C(N)=O)CO1 | 1.1 | > 100 | 4.53 | 15.7 | 0.978 | 7.29 | 2.09 | 10.8 | 0.316 | 1.62 | 3.18 | 11.2 | 0.668 | 9.04 | 4.91 | > 21.3 | 6.35 | 19.7 | – |
| CN(Cc1ccccc1)c1ncnc2ccc(Br)cc12 | 13.6 | 38.7 | – | – | 12.6 | 25.9 | 11.9 | 25.5 | 14.7 | 29.2 | 10.9 | 23.2 | 3.26 | 13.1 | 13.7 | 31 | 14.2 | 30.3 | – |
| CN(C)C(=O)C(NCCO)c1ccccc1 (stereo not drawn) | – | – | – | > 100 | – | > 100 | – | > 100 | – | > 100 | – | – | – | 59.7 | – | > 100 | – | > 100 | – |
| CC(C)COC(=O)N1N=NC2C3CC(=O)C(O3)C21 (stereo not drawn) | – | > 100 | – | > 100 | – | > 100 | – | > 100 | – | > 100 | – | > 100 | – | > 100 | – | > 100 | – | > 100 | – |
| COc1ccc(C(=O)OC2C(OC3C(O)COC(O[C@H]4C[C@H]5[C@@H]6CC=C7C[C@@H](O)CC[C@]7(C)[C@H]6CC[C@]5(C)[C@H]4[C@H](C)C(=O)CCC(C)C)C3OC(=O)C(C)C)OCC(O)C2O)cc1 (stereo partly drawn) | 0.00574 | 0.0317 | 0.0163 | 3.87 | 0.0129 | 1.45 | 0.0707 | 4.77 | 0.0107 | 0.0488 | 0.0411 | 2.88 | < 0.00275 | 0.01 | < 0.00275 | 0.0158 | 0.0127 | 1.52 | – |
